# According to paper PMC11378297, “Discovery and Profiling of New Multimodal Phenylglycinamide Derivatives as Potent Antiseizure and Antinociceptive Drug Candidates” (ACS Chemical Neuroscience, 2024):
# Where two headings read alike, the source gives them in different places.
# Test: pharmacokinetic study in mice (serum and brain, non-compartmental analysis)
# Assay type: in vivo, mouse
# Conditions: for Kp / MRT / Tmax / half-life / k el / CL/F / Vd/F: male, CD-1, mouse; for Kp: brain and serum, read-out: Brain-to-serum AUC ratio; for half-life: read-out: t1/2 λz; for k el: read-out: λz (converted); for Vd/F: read-out: Vz/F
# Method: They were housed in conditions of constant temperature with the 12:12 h light–dark cycle and free access to food and water. […] Moreover, the compound was dissolved in a mixture of DMSO/PEG400/water (1:4:5, v/v/v) and administered p.o. at a dose of 25 mg/kg. […] After allowing the blood to coagulate for 20 min at room temperature, the serum was separated using a 5000g Eppendorf miniSpin centrifuge (Germany) for 10 min. Samples were kept at −80 °C until they were analyzed. The First Ethical Committee on Animal Experimentation in Kraków granted approval for all animal treatments (license no. 270/2019). Concentrations of compound (R)-32 in mouse serum and brain tissue were measured using a liquid chromatography tandem mass spectrometry method (LC-MS/MS). Mouse brains were homogenized in distilled water at the ratio of 1:4 (w/v) using the ULTRA-TURRAX T10 basic tissue homogenizer (IKA, Germany). […] Samples were shaken for 10 min (IKA Vibrax VXR, Germany) and then centrifuged for 5 min at the speed of 8000g (Eppendorf miniSpin centrifuge, Germany). Supernatants were transferred into the autosampler vials, and a sample volume of 1 μL was injected into the LC-MS/MS system. Liquid chromatography was performed on an Exion LC AC HPLC system (Sciex, USA) with a Hypersil Gold C18 analytical column (3 × 50 mm, 5 μm, Thermo Scientific, USA). […] The initial mobile phase composition was 95% B and 5% A for the first 2 min with a linear gradient to 5% B in the next 2 min and then isocratic mode for 2 min with the following rapid change back to 95% B in 0.1 min. The remaining time of elution was set at 95% B. The whole HPLC operation lasted 10 min, and the flow rate was set to 0.4 mL/min. A QTRAP 4500 mass spectrometer (Sciex, USA) equipped with an ESI source, was used for detection. The mass spectrometric parameters were optimized to obtain maximum sensitivity at unit resolution. The ion source temperature was maintained at 450 °C, and the ion spray voltage was set to 5500 V. The CUR was set to 40 psi and the collision gas (CAD) to medium. The MRM experiments were conducted in the positive ion mode by monitoring the precursor to product ion transitions from m/z 422 to 247 (CE = 25 eV) and from m/z 422 to 106 (CE = 57 eV) for compound (R)-32 and from m/z 436 to 207 (CE = 42 eV) for IS. The working solutions for (R)-32 were created in methanol, while the stock solution was made in DMSO at a concentration of 1 mg/mL. […] Two distinct calibration curves were created for serum samples, one for greater concentrations and one for lower amounts. The precipitating agent was also diluted 10 times with calibrators and samples from the highest concentration range. […] The limits used for quantification were 0.001 to 5, 0.1 to 20 μg/mL for serum, and 0.005 to 25 μg/g for brain tissue. Samples with (R)-32 concentrations higher than the quantitative upper limit were 10-fold diluted using the blank matrix, which is either serum or brain homogenate. The method’s precision and accuracy fell within the bounds established by the FDA’s standards for the verification of bioanalytical techniques. During the normal analysis of the samples, no substantial matrix effect was identified, and no stability issues were encountered. The Analyst program version 1.7 was utilized for both data collecting and analysis. Noncompartmental analysis was used to estimate pharmacokinetic parameters of (R)-32 in serum and brain tissue. The area under the mean concentration versus time curve extrapolated to infinity (AUC0-inf) was estimated using the linear trapezoidal rule by combining trapezoid calculation of AUC0–t and the area extrapolated to infinity. The MRT was calculated from AUMC0-inf/AUC0-inf, where AUMC0-inf was estimated by calculation of the total area under the first-moment curve. The terminal slope (λz) was calculated by log–linear regression of the drug concentration versus time data in the terminal phase and the terminal half-life (t0.5) was calculated as 0.693/λz. […]
smiles,measurement,setting,value
"CC(=O)N[C@@H](C(=O)N1CCN(c2cccc(OC(F)(F)F)c2)CC1)c1ccccc1 [(R)-32, (R)-N-(2-Oxo-1-phenyl-2-(4-(3-(trifluoromethoxy)phenyl)piperazin-1-yl)ethyl)acetamide]",MRT after p.o. dosing in comparison to i.p. administration,,~4 fold
same,ratios of Cmax and AUC in serum after p.o. dosing compared to i.p. administration of the same dose,25 mg/kg,lower than 0.5
same,AUC0–∞,"brain, 25 mg/kg i.p.","274,802.60 ng·min/mL(g)"
same,Cmax,"brain, 25 mg/kg i.p.",8266.67 ng/mL(g)
same,AUC0–∞,"brain, 25 mg/kg p.o.","156,252.29 ng·min/mL(g)"
same,Cmax,"brain, 25 mg/kg p.o.",1870.33 ng/mL(g)
same,AUC0–∞,"brain, 50 mg/kg i.p.","689,733.29 ng·min/mL(g)"
same,Cmax,"brain, 50 mg/kg i.p.","21,475.00 ng/mL(g)"
same,Kp,"intraperitoneal, 50 mg/kg",1.5
same,Kp,"ip, 25 mg/kg i.p.",1.2
same,Kp,"po, 25 mg/kg p.o.",1.3
same,MRT,"ip, brain, 25 mg/kg i.p.",45.5 min
same,Tmax,"ip, brain, 25 mg/kg i.p.",15 min
same,half-life,"ip, brain, 25 mg/kg i.p.",80.5 min
same,k el,"ip, brain, 25 mg/kg i.p.",0.00015 s⁻¹
same,MRT,"ip, brain, 50 mg/kg i.p.",47.3 min
same,Tmax,"ip, brain, 50 mg/kg i.p.",15 min
same,half-life,"ip, brain, 50 mg/kg i.p.",62.3 min
same,k el,"ip, brain, 50 mg/kg i.p.",0.000183 s⁻¹
same,CL/F,"ip, serum, 25 mg/kg i.p.",110 mL/min/kg
same,MRT,"ip, serum, 25 mg/kg i.p.",42.3 min
same,Tmax,"ip, serum, 25 mg/kg i.p.",15 min
same,Vd/F,"ip, serum, 25 mg/kg i.p.",12.3 L/kg
same,half-life,"ip, serum, 25 mg/kg i.p.",77.5 min
same,k el,"ip, serum, 25 mg/kg i.p.",0.00015 s⁻¹
same,CL/F,"ip, serum, 50 mg/kg i.p.",108 mL/min/kg
same,MRT,"ip, serum, 50 mg/kg i.p.",33.6 min
same,Tmax,"ip, serum, 50 mg/kg i.p.",15 min
same,Vd/F,"ip, serum, 50 mg/kg i.p.",9.97 L/kg
same,half-life,"ip, serum, 50 mg/kg i.p.",64.3 min
same,k el,"ip, serum, 50 mg/kg i.p.",0.000183 s⁻¹
same,MRT,"po, brain, 25 mg/kg p.o.",151 min
same,Tmax,"po, brain, 25 mg/kg p.o.",5 min
same,half-life,"po, brain, 25 mg/kg p.o.",133 min
same,k el,"po, brain, 25 mg/kg p.o.",8.33e-05 s⁻¹
same,CL/F,"po, serum, 25 mg/kg p.o.",210 mL/min/kg
same,MRT,"po, serum, 25 mg/kg p.o.",156 min
same,Tmax,"po, serum, 25 mg/kg p.o.",5 min
same,Vd/F,"po, serum, 25 mg/kg p.o.",38.5 L/kg
same,half-life,"po, serum, 25 mg/kg p.o.",127 min
same,k el,"po, serum, 25 mg/kg p.o.",8.33e-05 s⁻¹
same,Tmax,"serum, other: both i.p. and p.o., after both i.p. and p.o. dosing",≤ 15 min
same,AUC0–∞,"serum, 25 mg/kg i.p.","228,063.48 ng·min/mL(g)"
same,Cmax,"serum, 25 mg/kg i.p.",7613.33 ng/mL(g)
same,AUC0–∞,"serum, 25 mg/kg p.o.","118,998.11 ng·min/mL(g)"
same,Cmax,"serum, 25 mg/kg p.o.",1266.00 ng/mL(g)
same,AUC0–∞,"serum, 50 mg/kg i.p.","464,877.54 ng·min/mL(g)"
same,Cmax,"serum, 50 mg/kg i.p.","15,900.00 ng/mL(g)"
